The values below come from US12097174B2, “Methods and agents that enhance myogenic progenitor cell engraftment” (President and Fellows of Harvard College, priority 2018, dated 2024).

Experiment [1] has as its system Zebrafish myogenic progenitor cells (ZeMPCs). The experiment in a line: Limiting dilution engraftment assay (ELDA): cells treated ex vivo, transplanted into adult zebrafish, imaged at 7 dpt. The class given is in vivo. As for the experimental part:
Donor cells were derived from embryos that contained a GFP cassette driven by the promoter for mylz2, a muscle-specific structural protein. Recipients were optically clear, immunocompromised adult prkdc−/− zebrafish. To perform a limiting dilution assay, three doses (n=100, 200, and 400 cells) were administered per treatment (n=10 engraftment events per treatment-dose combination). The estimated engrafting cell frequency was calculated using the Extreme Limiting Dilution Analysis (ELDA, Hu et. al. 2009), which provides the most likely estimate (MLE) of engrafting cell frequency.
Given that this group of 230 lipids is too many to be examined in mice, transplantation efficiency was instead examined via limit-dilution assays in 15 recipient zebrafish per compound after a brief (4 hour) ex vivo chemical exposure. Positive hits from this primary screening were rescreened in replicate transplantation experiments incorporating dose response testing.
Lipids are frequently found to enhance cell migration and homeostasis in blood and muscle tissue (Cencetti et al., 2014; Lahvic et al., 2018; Li et al., 2015; Oh et al., 2016), and so it was elected to screen mainly bioactive lipids in efforts to identify compounds that enhance ZeMPCs engraftment efficiency in vivo. Myogenic progenitor cells were treated for 4 hours with one of the 188 unique lipid compounds contained in the ICCB Known Bioactives Library. Compound-treated cells were then harvested and transplanted intramuscularly into both flanks of 5 different casper recipient fish, with transplants performed at each of 3 transplanted cell doses (25, 75 or 150 cells). In these studies, recipient fish received split-dose irradiation of 15 Gy at 2 days and 1 day prior to transplantation to suppress any immune responses to the transplanted cells. Engraftment efficiency was measured by imaging casper recipients at 7 dpt (FIG. 18A). […] For this secondary screening approach, cells were transplanted into prkdc^D3612ls casper fish, which are deficient in mature T and B cells, and assayed engraftment efficiency in the recipient fish 7 days post-transplantation. Two compounds were identified, lysophosphatidic acid (LPA) and niflumic acid (NFA), which increased ZeMPC engraftment efficiency in both of these assay systems (FIG. 12B).
Lipids from the ICCB Known Bioactives Library (enzolifesciences.com/BML-2840/iccb-known-bioactives-library) were diluted at a 1:100 ratio in transplantation media (zESC medium without bFGF and FBS) and added to prewashed in vitro expanded muscle cells. NFA (Cayman and Santa Cruz Biotechnology) and LPA (Cayman and Santa Cruz Biotechnology) were used for the secondary confirmation screening experiments. […] 4- to 8-month-old casper recipients received split-dose irradiation of 15 Gy each, either 2 days or 1 day before transplantation. For LDA screening, cells were transplanted into each side of 5 pre-irradiated casper recipient fish or 5 non-irradiated prkdc-mutant recipient zebrafish. At 7 dpt, the recipients were anaesthetized using a previously described method (Dang et al., 2016) and imaged using a fluorescent stereo microscope (Leica M165 FC). Successful engraftment was defined as the presence of GFP+ fibers. Variation in different experiments is caused by inherent variability in the in vitro ZeMPC derivation procedure, which results in differences in engrafting cell frequency across different derivation attempts. To mitigate the impact of such experimental variation on screening results, only LDA results for cells derived from the same cultures were compared. Comparison to a vehicle-treated experimental control was included in every transplantation experiment. Next, the chemical treated cell potency and vehicle-treated cell potency was measured using the Extreme Limiting Dilution Analysis (ELDA) software (Hu and Smyth, 2009). The ratio of the treated cell potency and vehicle-treated cell potency determine the engraftment efficiency fold increase value.

Experiment [2] deals with ZeMPCs. Put plainly: Calcium imaging in Fura-2, AM treated ZeMPCs (single-cell imaging). The class given is cell-based, zebrafish. The note with it: 10 μM NFA, 5 μM LPA, 10 μM ionomycin; 10-20 seconds after loading. As to the method:
Fura-2, AM treated ZeMPCs were exposed to 10 μM NFA, 5 μM LPA, 10 μM lonomycin (as a positive control) and DMSO (as vehicle control) to visualize their effect on intracellular calcium ion concentration using single-cell imaging. […] Scale bar 50 μm.
(§1) The ZeMPCs and C2C12 cells were incubated with Fura-2, AM (Thermo Fisher Sci F1225), a cell permeant fluorescent calcium ion indicator, for 45 minutes at 28.5° C. and 37° C., respectively, followed by imaging with Celldiscoverer7 Microscope (Zeiss). 20 seconds after imaging initiation the treatment was added to the cells and continued for a total of 2-3 minutes.

Experiment [3] concerns C2C12 cells. Put plainly: Calcium imaging in Fura-2, AM treated C2C12 cells (single-cell imaging). The class given is cell-based, mouse. The conditions noted are these: 10 μM NFA, 5 μM LPA; 10-20 seconds after loading. As for the experimental part: Fura-2, AM treated C2C12 cells were exposed to 10 μM NFA, 5 μM LPA or DMSO as vehicle control to visualize the effect on intracellular calcium ion concentration using single-cell imaging. […] Scale bar 50 μm.
as §1

“Also recorded” adds a separate entry of the source.

Take `Cc1ccc(Cl)c(Nc2ccccc2C(=O)O)c1Cl` [MFA, meclofenamic acid]: the engraftment frequency entry in experiment [1] (concurrent injection of donor cells with 10 uM MFA) is recorded as “not sufficient to increase engraftment frequency”. Also, the “estimated engrafting cell frequency / engraftment” value in experiment [1] (donor cells treated 2 hours with 10 uM MFA before transplantation, vs vehicle, p=0.0367) is on record as “increase the engraftment capacity; also recorded: optimally increase engraftment; also recorded: higher”.
For the compound `C[C@H](CCC(=O)O)C[C@H](C)C[C@H](C)C(=O)/C=C(\O)[C@H](C)C[C@H](C)C/C=C/[C@@H](C)[C@@H](O)[C@@H](C)[C@@H](O)C[C@@H]1CC[C@@](C)([C@H]2CC[C@@](C)([C@@H](C)O)O2)O1` [ionomycin], the “engraftment efficiency of treated ZeMPCs” value in experiment [1] (prkdc-mutant zebrafish, vs vehicle-treated controls) was “increased the engraftment efficiency”. Besides, the “intracellular calcium ion concentration” value in experiment [2] and in experiment [3] was “increase” each time.
